Here are results for five molecules from ChEMBL document CHEMBL4414576, “Recent advancements in mechanistic studies and structure activity relationship of FoF1 ATP synthase inhibitor as antimicrobial agent” (Eur J Med Chem, 2019).

Molecules are shown by their SMILES. In brackets after ≈: the same amount, converted by molar mass. Starred links: 1 amine or outer side, 2 acyl side, 3 side chain; linkers in the order of their positions; H or OH if unused. Non-standard residues stand in square brackets, D forms with d. Residues, ends and D or L forms follow the SMILES beside them. *: point of attachment. X2 = CCC(=O)C[C@@H](O)CC(C)C[C@H](N[*:1])C(=O)[*:2]; Leu(3R-OH) = CC(C)[C@@H](O)[C@H](N)C(=O)O; NH((S)CH(Me)CH2NMe2) = C[C@@H](CN(C)C)N*; Pro(4S-Me) = C[C@@H]1CN[C@H](C(=O)O)C1; X1 = CC[C@@H](C)/C=C/C(=O)*; Aib = CC(C)(N)C(=O)O; βAla = NCCC(=O)O

Data set [1] in a line: Inhibition of ATP synthase in Mycobacterium smegmatis. The arrangement: species or system Mycolicibacterium smegmatis.
The nature of data set [2]: Selectivity index, ratio of IC50 for ATP synthase in Mycobacterium tuberculosis H37Rv to IC50 for mitochondrial ATP synthase isolated from swiss albino mouse liver.
In data set [3] the target is ATP synthase (Mycobacterium tuberculosis) (UniProt P9WPU9+P9WPU5+P9WPU7+P9WPV5+P9WPS1+P9WPV1+P9WPV7+P9WPV3). Description: Inhibition of ATP synthase in Mycobacterium tuberculosis H37Rv whole cell lysate after 18 hrs at 10X of MIC relative to control. It is filed as subcellular.
For data set [4], the species on record is Mus musculus. Description: Inhibition of mitochondrial ATP synthase isolated from Swiss albino mouse liver at 100 uM using succinate as substrate after 1 hr relative to control.
Data set [5] concerns Mycobacterium tuberculosis. Description: Antimicrobial activity against Mycobacterium tuberculosis H37Rv. It is filed as functional, organism-based.
The nature of data set [6]: Selectivity index, ratio of CC50 for human HepG2 cells to MIC of Mycobacterium tuberculosis H37Rv. The class given is toxicity.
Data set [7] concerns Saccharomyces cerevisiae. The data set is described as follows: Inhibition of F1F0-ATP synthase in yeast relative to control. The note with it: concentration not given here.
In data set [8] the test system is Microsporum. The data set is described as follows: Antifungal activity against Microsporum. It is filed as functional.
Data set [9] has as its system Microbacterium. Description: Antimicrobial activity against Microbacterium species. It is filed as functional.
The subject of data set [10] is Trichophyton. The data set is described as follows: Antifungal activity against Trichophyton. The class given is functional.
Data set [11] in a line: Antifungal activity against Cryptococcus. It is filed as functional.
Data set [12] has as its system Sporotrichum. The data set is described as follows: Antifungal activity against Sporotrichum. It is filed as functional.
Data set [13] concerns Streptococcus pyogenes. Description: Antimicrobial activity against Streptococcus pyogenes. The class given is functional.
For data set [14], the system named is Enterococcus faecalis. Description: Antimicrobial activity against Streptococcus faecalis. It is filed as functional.
Data set [15] has as its system Candida. The data set is described as follows: Antifungal activity against Candida. The class given is functional.
For data set [16], the system named is Micrococcus luteus. The data set is described as follows: Antimicrobial activity against Sarcina lutea. It is filed as functional.
For data set [17], the system named is Bacillus subtilis. The data set is described as follows: Antimicrobial activity against Bacillus subtilis. It is filed as functional.
Data set [18] deals with Staphylococcus aureus. The data set is described as follows: Antimicrobial activity against Staphylococcus aureus. The class given is functional.
Data set [19] deals with Streptococcus pneumoniae. The data set is described as follows: Antimicrobial activity against Streptococcus pneumoniae. The class given is functional.
Data set [20] deals with Mycolicibacterium smegmatis. Description: Antimicrobial activity against Mycobacterium smegmatis after 1 to 5 days by two-fold dilution. It is filed as functional, organism-based.
In data set [21] the test system is Escherichia coli. The data set is described as follows: Antimicrobial activity against Escherichia coli after 1 to 5 days by two-fold dilution. It is filed as functional, organism-based.
Data set [22] deals with Pseudomonas aeruginosa. The data set is described as follows: Antimicrobial activity against Pseudomonas aeruginosa after 1 to 5 days by two-fold dilution. The class given is functional, organism-based.
Data set [23] has as its system Bacillus subtilis. The data set is described as follows: Antimicrobial activity against Bacillus subtilis after 1 to 5 days by two-fold dilution. It is filed as functional, organism-based.
In data set [24] the test system is Staphylococcus aureus. The data set is described as follows: Antimicrobial activity against Staphylococcus aureus after 1 to 5 days by two-fold dilution. It is filed as functional, organism-based.

One may read the IC50 as the concentration at which inhibition is half-maximal. High values mean weaker potency in that assay, low ones greater potency in that assay. For orientation: inhibition means the relative decrease from the control value, in per cent. High values mean strong suppression, low ones little suppression. Usually MIC stands for the lowest concentration that inhibits growth of the organism. A high value points to a less susceptible organism. As to `COc1ccc(/C=C2/S/C(=N/N=C/c3ccccc3O)NC2=O)cc1`, the IC50 in data set [1] amounted to 0.312 µM. In data set [2], the Ratio IC50 turned out to be 51. Besides, the inhibition is 15 to 30% in [3] and 32% in [4]. Also, 0.5 µg/mL (≈ 1.41 µM) was the least that counted as inhibitory in [5] (MIC). The selectivity ratio in data set [6] was 80.

Turning to `COc1cc(=O)oc(/C=C/C=C/C=C/C(C)=C/[C@]2(C)O[C@H](C)[C@](C)(O)[C@H]2O)c1C`, in data set [7], the inhibition amounted to 85%.

As to `CCC(=O)C[C@@H](O)CC(C)C[C@H](NC(=O)[C@@H]1C[C@H](C)CN1C(=O)/C=C/[C@H](C)CC)C(=O)N[C@H](C(=O)NC(C)(C)C(=O)N[C@@H](CC(C)C)C(=O)N[C@@H](CC(C)C)C(=O)NC(C)(C)C(=O)NC(C)(C)C(=O)NCCC(=O)N[C@@H](C)CN(C)C)[C@H](O)C(C)C` (stereo partly drawn) (X1-[Pro(4S-Me)][X2][Leu(3R-OH)][Aib]LL[Aib][Aib][βAla]-{NH((S)CH(Me)CH2NMe2)}), the MIC was 1 to 10 µg/mL (≈ 0.821 to 8.21 µM) in [8]; 2.52 to 50 µg/mL (≈ 2.07 to 41 µM) in data set [9]; 1 to 10 µg/mL (≈ 0.821 to 8.21 µM) in data set [10]; 1 to 10 µg/mL (≈ 0.821 to 8.21 µM) in data set [11]; 1 to 10 µg/mL (≈ 0.821 to 8.21 µM) in data set [12]; 2.52 to 50 µg/mL (≈ 2.07 to 41 µM) in [13]. The MIC in data set [14] was in the range of 2.52 to 50 µg/mL (≈ 2.07 to 41 µM); in data set [15], 1 to 10 µg/mL (≈ 0.821 to 8.21 µM); in [16], 2.52 to 50 µg/mL (≈ 2.07 to 41 µM); in data set [17], 2.52 to 50 µg/mL (≈ 2.07 to 41 µM); in [18], 2.52 to 50 µg/mL (≈ 2.07 to 41 µM).

In data set [19], `COc1nc2ccc(Br)cc2cc1[C@H](c1ccccc1)[C@](O)(CCN(C)C)c1ccc(Cl)cc1` had an MIC of 1 µg/mL (≈ 1.85 µM).

Take `FC(F)(F)Oc1cccc(CNCCNC2C3CC4CC(C3)C2C4)c1` (centres undefined): half-maximal inhibition in [20] (IC50) required 20 µM. Besides, the MIC in data set [21] came to 6.25 µg/mL (≈ 17.6 µM); in [22] it was 12.5 µg/mL (≈ 35.3 µM); in data set [23] it was 6.25 µg/mL (≈ 17.6 µM); in [24], 6.25 µg/mL (≈ 17.6 µM).
